PubChem BioAssay (NCI)
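Growth conditions: 96-well plates. Treatment: test compound, 48 hours, 5 concentrations. Analysis: linear interpolation between bracketing concentrations; unreached endpoints set to highest concentration. TGI: concentration producing complete growth inhibition.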

How the values were obtained:
Experiment in all cases: NCI tumour cell line growth inhibition, 48 h
SW-620 colon = system: SW-620 colon
RXF 393 renal = system: RXF 393 renal
NCI-H226 lung = system: NCI-H226 lung
SN12C renal = system: SN12C renal
SK-MEL-5 melanoma = system: SK-MEL-5 melanoma
SF-268 CNS = system: SF-268 CNS
UACC-62 melanoma = system: UACC-62 melanoma
HS 578T breast = system: HS 578T breast
NCI-H522 lung = system: NCI-H522 lung
SF-295 CNS = system: SF-295 CNS
RPMI-8226 leukemia = system: RPMI-8226 leukemia
EKVX NSCLC = system: EKVX NSCLC
BT-549 breast = system: BT-549 breast
A549 NSCLC = system: A549 NSCLC
CAKI-1 renal = system: CAKI-1 renal
DU-145 prostate = system: DU-145 prostate
MALME-3M melanoma = system: MALME-3M melanoma
UO-31 renal = system: UO-31 renal
HOP-92 NSCLC = system: HOP-92 NSCLC
OVCAR-5 ovarian = system: OVCAR-5 ovarian
HT29 colon = system: HT29 colon
KM12 colon = system: KM12 colon
HOP-62 NSCLC = system: HOP-62 NSCLC
MDA-MB-231 breast = system: MDA-MB-231 breast
SK-MEL-2 melanoma = system: SK-MEL-2 melanoma
U251 CNS = system: U251 CNS
SF-539 CNS = system: SF-539 CNS
MDA-N = system: MDA-N
TK-10 renal = system: TK-10 renal
CCRF-CEM leukemia = system: CCRF-CEM leukemia
HCC-2998 colon = system: HCC-2998 colon
T-47D breast = system: T-47D breast
LOX IMVI melanoma = system: LOX IMVI melanoma
SNB-19 CNS = system: SNB-19 CNS
OVCAR-4 ovarian = system: OVCAR-4 ovarian
IGROV1 ovarian = system: IGROV1 ovarian
K-562 leukemia = system: K-562 leukemia
A498 renal = system: A498 renal
HCT-116 colon = system: HCT-116 colon
MCF7 breast = system: MCF7 breast
NCI-H23 lung = system: NCI-H23 lung
NCI/ADR-RES ovarian = system: NCI/ADR-RES ovarian
M14 melanoma = system: M14 melanoma
HCT-15 colon = system: HCT-15 colon
OVCAR-3 ovarian = system: OVCAR-3 ovarian
HL-60(TB) leukemia = system: HL-60(TB) leukemia
OVCAR-8 ovarian = system: OVCAR-8 ovarian
UACC-257 melanoma = system: UACC-257 melanoma
MDA-MB-435 = system: MDA-MB-435
786-0 renal = system: 786-0 renal
SK-MEL-28 melanoma = system: SK-MEL-28 melanoma
ACHN renal = system: ACHN renal
PC-3 prostate = system: PC-3 prostate
COLO 205 colon = system: COLO 205 colon
SK-OV-3 ovarian = system: SK-OV-3 ovarian
MOLT-4 leukemia = system: MOLT-4 leukemia
SNB-75 CNS = system: SNB-75 CNS

CC(C)(C)OC(=O)NCC(c1c[nH]c2ccc(Br)cc12)c1c[nH]c2ccc(Br)cc12
TGI (SW-620 colon): 24.9 µM | TGI (RXF 393 renal): 25.7 µM | TGI (NCI-H226 lung): 36.7 µM | TGI (SN12C renal): 18.1 µM | TGI (SK-MEL-5 melanoma): 19 µM | TGI (SF-268 CNS): 25.6 µM | TGI (UACC-62 melanoma): 23.1 µM | TGI (HS 578T breast): 47.7 µM | TGI (NCI-H522 lung): 25.2 µM | TGI (SF-295 CNS): 21.9 µM | TGI (RPMI-8226 leukemia): > 100 µM | TGI (EKVX NSCLC): 15.2 µM | TGI (BT-549 breast): 24.8 µM | TGI (A549 NSCLC): 17.2 µM | TGI (CAKI-1 renal): 24.5 µM | TGI (DU-145 prostate): 27.7 µM | TGI (MALME-3M melanoma): 33.3 µM | TGI (UO-31 renal): 19.6 µM | TGI (HOP-92 NSCLC): 19.4 µM | TGI (OVCAR-5 ovarian): 20.2 µM | TGI (HT29 colon): 12.2 µM | TGI (KM12 colon): 19.4 µM | TGI (HOP-62 NSCLC): 27.3 µM | TGI (MDA-MB-231 breast): 32.1 µM | TGI (SK-MEL-2 melanoma): 22.3 µM | TGI (U251 CNS): 19.1 µM | TGI (SF-539 CNS): 27.8 µM | TGI (MDA-N): 21.2 µM | TGI (TK-10 renal): 25.2 µM | TGI (CCRF-CEM leukemia): 71.1 µM | TGI (HCC-2998 colon): 18 µM | TGI (T-47D breast): 32.9 µM | TGI (LOX IMVI melanoma): 22.7 µM | TGI (SNB-19 CNS): 23.3 µM | TGI (OVCAR-4 ovarian): 25.9 µM | TGI (IGROV1 ovarian): 17.3 µM | TGI (K-562 leukemia): > 100 µM | TGI (A498 renal): 29.1 µM | TGI (HCT-116 colon): 13.8 µM | TGI (MCF7 breast): 22 µM | TGI (NCI-H23 lung): 14.5 µM | TGI (NCI/ADR-RES ovarian): 23.1 µM | TGI (M14 melanoma): 12.6 µM | TGI (HCT-15 colon): 20.8 µM | TGI (OVCAR-3 ovarian): 17.2 µM | TGI (HL-60(TB) leukemia): 37.1 µM | TGI (OVCAR-8 ovarian): 45.6 µM | TGI (UACC-257 melanoma): 25.6 µM | TGI (MDA-MB-435): 28.7 µM | TGI (786-0 renal): 13.2 µM | TGI (SK-MEL-28 melanoma): 34.9 µM | TGI (ACHN renal): 18.1 µM | TGI (PC-3 prostate): 11.8 µM | TGI (COLO 205 colon): 16.2 µM

O=[N+]([O-])c1cccc(-c2ncnc(-c3cccc([N+](=O)[O-])c3)n2)c1
TGI (SW-620 colon): > 100 µM | TGI (RXF 393 renal): 62.8 µM | TGI (NCI-H226 lung): > 100 µM | TGI (SN12C renal): > 100 µM | TGI (SK-MEL-5 melanoma): > 100 µM | TGI (SF-268 CNS): > 100 µM | TGI (UACC-62 melanoma): 95.2 µM | TGI (HS 578T breast): > 100 µM | TGI (NCI-H522 lung): > 100 µM | TGI (SF-295 CNS): > 100 µM | TGI (RPMI-8226 leukemia): > 100 µM | TGI (EKVX NSCLC): > 100 µM | TGI (BT-549 breast): > 100 µM | TGI (A549 NSCLC): > 100 µM | TGI (CAKI-1 renal): 93.3 µM | TGI (DU-145 prostate): > 100 µM | TGI (SK-OV-3 ovarian): > 100 µM | TGI (MALME-3M melanoma): > 100 µM | TGI (UO-31 renal): > 100 µM | TGI (HOP-92 NSCLC): 57.2 µM | TGI (MOLT-4 leukemia): > 100 µM | TGI (OVCAR-5 ovarian): > 100 µM | TGI (HT29 colon): > 100 µM | TGI (KM12 colon): > 100 µM | TGI (HOP-62 NSCLC): 37.5 µM | TGI (MDA-MB-231 breast): 98.2 µM | TGI (SK-MEL-2 melanoma): > 100 µM | TGI (U251 CNS): 59.6 µM | TGI (MDA-N): > 100 µM | TGI (TK-10 renal): > 100 µM | TGI (HCC-2998 colon): > 100 µM | TGI (T-47D breast): > 100 µM | TGI (LOX IMVI melanoma): > 100 µM | TGI (IGROV1 ovarian): > 100 µM | TGI (K-562 leukemia): > 100 µM | TGI (A498 renal): > 100 µM | TGI (HCT-116 colon): > 100 µM | TGI (MCF7 breast): > 100 µM | TGI (NCI-H23 lung): > 100 µM | TGI (NCI/ADR-RES ovarian): > 100 µM | TGI (M14 melanoma): > 100 µM | TGI (OVCAR-3 ovarian): > 100 µM | TGI (HL-60(TB) leukemia): > 100 µM | TGI (OVCAR-8 ovarian): > 100 µM | TGI (UACC-257 melanoma): > 100 µM | TGI (MDA-MB-435): > 100 µM | TGI (786-0 renal): > 100 µM | TGI (SNB-75 CNS): > 100 µM | TGI (SK-MEL-28 melanoma): > 100 µM | TGI (PC-3 prostate): > 100 µM | TGI (COLO 205 colon): > 100 µM
